± gives the expanded uncertainty stated by the source.
Assay: mn = molality of the nth substance listed, in mol/kg
Conditions: 298.15 K, 101.33 kPa, Liquid, Vibrating tube method

OC[C@H]1O[C@@H]2O[C@H]3[C@H](O)[C@@H](O)[C@@H](O[C@H]4[C@H](O)[C@@H](O)[C@@H](O[C@H]5[C@H](O)[C@@H](O)[C@@H](O[C@H]6[C@H](O)[C@@H](O)[C@@H](O[C@H]7[C@H](O)[C@@H](O)[C@@H](O[C@H]1[C@H](O)[C@H]2O)O[C@@H]7CO)O[C@@H]6CO)O[C@@H]5CO)O[C@@H]4CO)O[C@@H]3CO [α-cyclodextrin] + O
Conditions | mass density [kg/m3]
m1 = 0.00975 | 1000.6 ± 2
m1 = 0.01763 | 1003.4 ± 2
m1 = 0.02931 | 1007.6 ± 2.1
m1 = 0.03389 | 1009.2 ± 2.1
m1 = 0.04348 | 1012.5 ± 2.2
m1 = 0.05233 | 1015.6 ± 2.3
m1 = 0.06207 | 1018.9 ± 2.4
m1 = 0.07117 | 1022 ± 2.5
m1 = 0.0783 | 1024.4 ± 2.5
m1 = 0.09004 | 1028.3 ± 2.7
m1 = 0.09733 | 1031 ± 2
m1 = 0.09764 | 1030.7 ± 2
m1 = 0.09915 | 1031.6 ± 2
m1 = 0.09944 | 1031.7 ± 2
m1 = 0.1001 | 1031.6 ± 2

Source: the NIST ThermoML archive (doi:10.1016/j.jct.2016.12.023)
